Numbers after ± are expanded uncertainties.
Test: molar heat capacity at constant pressure
Settings: Liquid, Flow calorimetry

## F/C=C/C(F)(F)F [trans-1,3,3,3-tetrafluoropropene]
313.46 K, 3000 kPa
  molar heat capacity at constant pressure: 160.8 ± 4.8 J/K/mol
313.47 K, 3980 kPa
  molar heat capacity at constant pressure: 158.97 ± 4.8 J/K/mol
313.47 K, 4490 kPa
  molar heat capacity at constant pressure: 157.95 ± 4.8 J/K/mol
313.48 K, 3490 kPa
  molar heat capacity at constant pressure: 159.89 ± 4.8 J/K/mol
313.48 K, 5010 kPa
  molar heat capacity at constant pressure: 157.04 ± 4.7 J/K/mol
313.49 K, 1040 kPa
  molar heat capacity at constant pressure: 165.36 ± 5 J/K/mol
313.49 K, 5490 kPa
  molar heat capacity at constant pressure: 156.58 ± 4.7 J/K/mol
313.49 K, 6010 kPa
  molar heat capacity at constant pressure: 155.67 ± 4.7 J/K/mol
313.49 K, 6990 kPa
  molar heat capacity at constant pressure: 153.61 ± 4.6 J/K/mol
313.49 K, 7470 kPa
  molar heat capacity at constant pressure: 152.93 ± 4.6 J/K/mol
313.5 K, 1510 kPa
  molar heat capacity at constant pressure: 164.22 ± 4.9 J/K/mol
313.5 K, 7990 kPa
  molar heat capacity at constant pressure: 152.36 ± 4.6 J/K/mol
313.51 K, 2010 kPa
  molar heat capacity at constant pressure: 163.08 ± 4.9 J/K/mol
313.51 K, 6510 kPa
  molar heat capacity at constant pressure: 154.53 ± 4.7 J/K/mol
313.51 K, 8500 kPa
  molar heat capacity at constant pressure: 151.79 ± 4.6 J/K/mol
313.52 K, 2480 kPa
  molar heat capacity at constant pressure: 162.4 ± 4.9 J/K/mol
313.52 K, 8990 kPa
  molar heat capacity at constant pressure: 150.99 ± 4.6 J/K/mol
313.52 K, 9510 kPa
  molar heat capacity at constant pressure: 150.65 ± 4.6 J/K/mol
313.53 K, 10000 kPa
  molar heat capacity at constant pressure: 149.96 ± 4.6 J/K/mol
323.28 K, 3520 kPa
  molar heat capacity at constant pressure: 163.76 ± 4.9 J/K/mol
323.28 K, 4030 kPa
  molar heat capacity at constant pressure: 162.4 ± 4.9 J/K/mol
323.29 K, 4530 kPa
  molar heat capacity at constant pressure: 161.25 ± 4.8 J/K/mol
323.29 K, 4990 kPa
  molar heat capacity at constant pressure: 160.46 ± 4.8 J/K/mol
323.29 K, 7490 kPa
  molar heat capacity at constant pressure: 155.89 ± 4.7 J/K/mol
323.29 K, 8010 kPa
  molar heat capacity at constant pressure: 154.75 ± 4.7 J/K/mol
323.29 K, 8520 kPa
  molar heat capacity at constant pressure: 154.18 ± 4.7 J/K/mol
323.29 K, 9040 kPa
  molar heat capacity at constant pressure: 153.04 ± 4.6 J/K/mol
323.31 K, 5490 kPa
  molar heat capacity at constant pressure: 159.66 ± 4.8 J/K/mol
323.31 K, 7030 kPa
  molar heat capacity at constant pressure: 156.92 ± 4.7 J/K/mol
323.32 K, 3010 kPa
  molar heat capacity at constant pressure: 164.68 ± 4.9 J/K/mol
323.32 K, 6010 kPa
  molar heat capacity at constant pressure: 158.63 ± 4.8 J/K/mol
323.33 K, 1510 kPa
  molar heat capacity at constant pressure: 168.9 ± 5.1 J/K/mol
323.33 K, 2010 kPa
  molar heat capacity at constant pressure: 167.41 ± 5 J/K/mol
323.33 K, 2500 kPa
  molar heat capacity at constant pressure: 165.93 ± 5 J/K/mol
323.33 K, 6480 kPa
  molar heat capacity at constant pressure: 157.83 ± 4.8 J/K/mol
323.34 K, 9490 kPa
  molar heat capacity at constant pressure: 152.7 ± 4.6 J/K/mol
323.36 K, 10010 kPa
  molar heat capacity at constant pressure: 151.79 ± 4.6 J/K/mol
333.08 K, 1550 kPa
  molar heat capacity at constant pressure: 178.13 ± 5.4 J/K/mol
333.08 K, 2060 kPa
  molar heat capacity at constant pressure: 175.62 ± 5.2 J/K/mol
333.11 K, 2510 kPa
  molar heat capacity at constant pressure: 173.69 ± 5.2 J/K/mol
333.11 K, 3500 kPa
  molar heat capacity at constant pressure: 170.26 ± 5.1 J/K/mol
333.13 K, 3030 kPa
  molar heat capacity at constant pressure: 172.09 ± 5.1 J/K/mol
333.13 K, 7490 kPa
  molar heat capacity at constant pressure: 160.8 ± 4.8 J/K/mol
333.14 K, 8040 kPa
  molar heat capacity at constant pressure: 159.32 ± 4.8 J/K/mol
333.15 K, 4000 kPa
  molar heat capacity at constant pressure: 169.01 ± 5.1 J/K/mol
333.15 K, 6520 kPa
  molar heat capacity at constant pressure: 162.4 ± 4.9 J/K/mol
333.15 K, 7020 kPa
  molar heat capacity at constant pressure: 161.37 ± 4.9 J/K/mol
333.16 K, 6010 kPa
  molar heat capacity at constant pressure: 163.54 ± 4.9 J/K/mol
333.16 K, 8500 kPa
  molar heat capacity at constant pressure: 158.75 ± 4.8 J/K/mol
333.18 K, 4980 kPa
  molar heat capacity at constant pressure: 166.27 ± 5 J/K/mol
333.18 K, 5500 kPa
  molar heat capacity at constant pressure: 164.56 ± 4.9 J/K/mol
333.19 K, 4500 kPa
  molar heat capacity at constant pressure: 167.76 ± 5 J/K/mol
333.19 K, 9020 kPa
  molar heat capacity at constant pressure: 158.06 ± 4.8 J/K/mol
333.2 K, 10080 kPa
  molar heat capacity at constant pressure: 155.89 ± 4.7 J/K/mol
333.21 K, 9510 kPa
  molar heat capacity at constant pressure: 157.38 ± 4.7 J/K/mol
343.53 K, 2040 kPa
  molar heat capacity at constant pressure: 185.77 ± 5.6 J/K/mol
343.57 K, 2550 kPa
  molar heat capacity at constant pressure: 183.04 ± 5.5 J/K/mol
343.57 K, 3000 kPa
  molar heat capacity at constant pressure: 180.3 ± 5.5 J/K/mol
343.59 K, 3540 kPa
  molar heat capacity at constant pressure: 178.36 ± 5.4 J/K/mol
343.6 K, 4040 kPa
  molar heat capacity at constant pressure: 175.74 ± 5.2 J/K/mol
343.61 K, 4540 kPa
  molar heat capacity at constant pressure: 173.23 ± 5.2 J/K/mol
343.62 K, 5040 kPa
  molar heat capacity at constant pressure: 171.75 ± 5.1 J/K/mol
343.62 K, 5510 kPa
  molar heat capacity at constant pressure: 169.69 ± 5.1 J/K/mol
343.62 K, 10070 kPa
  molar heat capacity at constant pressure: 157.61 ± 4.8 J/K/mol
343.63 K, 9080 kPa
  molar heat capacity at constant pressure: 160 ± 4.8 J/K/mol
343.63 K, 9530 kPa
  molar heat capacity at constant pressure: 159.09 ± 4.8 J/K/mol
343.64 K, 6050 kPa
  molar heat capacity at constant pressure: 168.44 ± 5 J/K/mol
343.64 K, 6590 kPa
  molar heat capacity at constant pressure: 166.61 ± 5 J/K/mol
343.64 K, 7070 kPa
  molar heat capacity at constant pressure: 165.25 ± 5 J/K/mol
343.64 K, 7510 kPa
  molar heat capacity at constant pressure: 163.88 ± 4.9 J/K/mol
343.64 K, 8090 kPa
  molar heat capacity at constant pressure: 162.17 ± 4.9 J/K/mol
343.65 K, 8480 kPa
  molar heat capacity at constant pressure: 160.91 ± 4.8 J/K/mol
353.55 K, 2550 kPa
  molar heat capacity at constant pressure: 196.49 ± 5.9 J/K/mol
353.55 K, 3510 kPa
  molar heat capacity at constant pressure: 188.4 ± 5.7 J/K/mol
353.58 K, 3040 kPa
  molar heat capacity at constant pressure: 192.05 ± 5.8 J/K/mol
353.61 K, 5010 kPa
  molar heat capacity at constant pressure: 178.36 ± 5.4 J/K/mol
353.61 K, 5510 kPa
  molar heat capacity at constant pressure: 176.54 ± 5.4 J/K/mol
353.62 K, 6040 kPa
  molar heat capacity at constant pressure: 175.17 ± 5.2 J/K/mol
353.64 K, 4520 kPa
  molar heat capacity at constant pressure: 181.44 ± 5.5 J/K/mol
353.64 K, 6530 kPa
  molar heat capacity at constant pressure: 173.69 ± 5.2 J/K/mol
353.64 K, 7050 kPa
  molar heat capacity at constant pressure: 172.54 ± 5.1 J/K/mol
353.65 K, 7500 kPa
  molar heat capacity at constant pressure: 171.63 ± 5.1 J/K/mol
353.65 K, 7970 kPa
  molar heat capacity at constant pressure: 170.72 ± 5.1 J/K/mol
353.66 K, 4050 kPa
  molar heat capacity at constant pressure: 184.52 ± 5.6 J/K/mol
353.67 K, 8480 kPa
  molar heat capacity at constant pressure: 170.04 ± 5.1 J/K/mol
353.68 K, 9030 kPa
  molar heat capacity at constant pressure: 168.67 ± 5 J/K/mol
353.68 K, 9510 kPa
  molar heat capacity at constant pressure: 168.21 ± 5 J/K/mol
353.68 K, 10090 kPa
  molar heat capacity at constant pressure: 166.96 ± 5 J/K/mol
363.56 K, 3500 kPa
  molar heat capacity at constant pressure: 207.67 ± 6.3 J/K/mol
363.56 K, 4000 kPa
  molar heat capacity at constant pressure: 200.03 ± 6 J/K/mol
363.57 K, 3000 kPa
  molar heat capacity at constant pressure: 219.53 ± 6.6 J/K/mol
363.61 K, 4510 kPa
  molar heat capacity at constant pressure: 194.78 ± 5.8 J/K/mol
363.61 K, 5520 kPa
  molar heat capacity at constant pressure: 186.46 ± 5.6 J/K/mol
363.62 K, 4990 kPa
  molar heat capacity at constant pressure: 190.34 ± 5.7 J/K/mol
363.63 K, 6020 kPa
  molar heat capacity at constant pressure: 182.81 ± 5.5 J/K/mol
363.64 K, 6520 kPa
  molar heat capacity at constant pressure: 180.19 ± 5.4 J/K/mol
363.64 K, 6990 kPa
  molar heat capacity at constant pressure: 177.33 ± 5.4 J/K/mol
363.64 K, 7530 kPa
  molar heat capacity at constant pressure: 175.05 ± 5.2 J/K/mol
363.64 K, 8010 kPa
  molar heat capacity at constant pressure: 173.12 ± 5.2 J/K/mol
363.65 K, 8530 kPa
  molar heat capacity at constant pressure: 171.4 ± 5.1 J/K/mol
363.65 K, 9050 kPa
  molar heat capacity at constant pressure: 170.15 ± 5.1 J/K/mol
363.66 K, 9450 kPa
  molar heat capacity at constant pressure: 169.01 ± 5.1 J/K/mol
363.66 K, 9990 kPa
  molar heat capacity at constant pressure: 167.76 ± 5 J/K/mol
373.35 K, 3540 kPa
  molar heat capacity at constant pressure: 259.44 ± 8 J/K/mol
373.42 K, 4030 kPa
  molar heat capacity at constant pressure: 231.73 ± 7.1 J/K/mol
373.42 K, 4510 kPa
  molar heat capacity at constant pressure: 216.91 ± 6.6 J/K/mol
373.43 K, 5010 kPa
  molar heat capacity at constant pressure: 206.42 ± 6.3 J/K/mol
373.44 K, 5540 kPa
  molar heat capacity at constant pressure: 199.23 ± 6 J/K/mol
373.47 K, 6020 kPa
  molar heat capacity at constant pressure: 194.1 ± 5.8 J/K/mol
373.48 K, 7010 kPa
  molar heat capacity at constant pressure: 185.66 ± 5.6 J/K/mol
373.49 K, 6530 kPa
  molar heat capacity at constant pressure: 189.54 ± 5.7 J/K/mol
373.49 K, 7500 kPa
  molar heat capacity at constant pressure: 183.04 ± 5.5 J/K/mol
373.5 K, 8030 kPa
  molar heat capacity at constant pressure: 179.62 ± 5.4 J/K/mol
373.51 K, 8510 kPa
  molar heat capacity at constant pressure: 177.45 ± 5.4 J/K/mol
373.56 K, 9050 kPa
  molar heat capacity at constant pressure: 175.4 ± 5.2 J/K/mol
373.57 K, 9430 kPa
  molar heat capacity at constant pressure: 174.48 ± 5.2 J/K/mol
373.59 K, 9990 kPa
  molar heat capacity at constant pressure: 172.66 ± 5.1 J/K/mol
391.65 K, 4520 kPa
  molar heat capacity at constant pressure: 525.5 ± 21 J/K/mol
392.2 K, 5020 kPa
  molar heat capacity at constant pressure: 310.99 ± 13 J/K/mol
392.38 K, 5470 kPa
  molar heat capacity at constant pressure: 257.73 ± 8.2 J/K/mol
392.46 K, 6010 kPa
  molar heat capacity at constant pressure: 226.37 ± 7 J/K/mol
392.52 K, 6540 kPa
  molar heat capacity at constant pressure: 210.06 ± 6.4 J/K/mol
392.57 K, 7060 kPa
  molar heat capacity at constant pressure: 200.6 ± 6 J/K/mol
392.6 K, 7560 kPa
  molar heat capacity at constant pressure: 194.55 ± 5.8 J/K/mol
392.63 K, 8030 kPa
  molar heat capacity at constant pressure: 191.02 ± 5.7 J/K/mol
392.67 K, 8510 kPa
  molar heat capacity at constant pressure: 189.88 ± 5.7 J/K/mol
392.72 K, 9070 kPa
  molar heat capacity at constant pressure: 188.05 ± 5.7 J/K/mol
392.75 K, 10000 kPa
  molar heat capacity at constant pressure: 187.03 ± 5.6 J/K/mol
392.77 K, 9520 kPa
  molar heat capacity at constant pressure: 188.51 ± 5.7 J/K/mol
392.77 K, 10010 kPa
  molar heat capacity at constant pressure: 187.48 ± 5.6 J/K/mol
